# According to a melting point compilation (Tetko et al.; mined from patent text by program, amines drawn as free bases though some values may be those of a salt):
row,SMILES,melting point
1,O=S(=O)(NC(=NO)Nc1ccc(Cl)cc1)c1ccc(-c2ccccn2)s1,210 °C
2,CCCn1cncc1CSc1nc2ccc([N+](=O)[O-])cc2[nH]1,189 to 190 °C
3,NS(=O)(=O)OCCOc1ccc(Br)cc1,134 to 137 °C
4,O=C(Nc1cc(Cl)c(Cl)c(Cl)c1)c1cc(Br)ccc1O,297 to 299 °C
5,O=[N+]([O-])c1ccc(C=Cc2nc(Nc3ccccc3)c3ccccc3n2)o1,183 °C
6,Cc1cc(Cl)ccc1N=CN(C)SN(C1CCCCC1)C1CCCCC1,110 to 111 °C
7,CC(=O)OC1CCc2oc3ccc(Br)cc3c(=O)c2C1 (configuration not stated),178 °C
8,CC(C)c1ccc(C(=O)CCc2ccccc2)c(C(C)C)c1OS(N)(=O)=O,121 to 124 °C
9,O=C1c2ccccc2Nc2ccccc2N1CCCCl,127 to 131 °C
10,Clc1cccc2c1CN(Cc1c[nH]c3ccccc13)C2,163 to 165 °C
11,CCCCN(CCCC)CCCOc1ccc(-c2cn3cccc(C)c3n2)cc1OC,127 to 130 °C
12,Cc1c(-c2ccccc2)oc2c(CO)cccc2c1=O,145 to 147 °C
13,C=Cc1cc(C(C)(C)C)c(O)c(C(C)(C)C)c1,36 to 39 °C
14,CC(=O)C1C(C)CC2C3CCC4CC(O)CCC4(C)C3C(=O)CC21C (configuration not stated),138 to 140 °C
15,Cc1nn(C(=O)Oc2ccccc2)c(=O)n1N,175 °C
16,CC(=O)COc1ccc(-c2ccc(=O)n(Cc3ccc(Cl)cc3F)c2)cc1,127 °C
17,CCOC(=O)Cc1ccc(-c2nc(COc3cc(CO)on3)c(C)o2)cc1,116 to 117 °C
18,C=CCN1C(=O)C[N+]([O-])=C(c2ccccc2F)c2cc(Cl)ccc21,183 °C
19,CCCCCCCCCCCCSc1cc2nc(C(CC)CCCC)oc2cc1[N+](=O)[O-] (configuration not stated),108 to 110 °C
20,CCCCCC1CCC(c2ccc(-c3ccc(Br)cc3C(F)(F)F)cc2)CC1 (configuration not stated),51 to 52 °C
21,CCOC(=O)c1ncsc1-c1cc(F)cc(F)c1,112 to 113 °C
22,COc1ccc(CC(=O)O)c(OCCCc2cn(-c3ccc(C(F)(F)F)cn3)nc2C(C)C)c1,143 to 144 °C
23,COCc1c(C(=O)OC)c2cc(OC)ccc2n1C,89.2 to 91 °C
24,COc1nc(SC)nc(OC)c1C1CC(=O)C=C(O)C1 (configuration not stated),195 to 200 °C

row,SMILES,melting point
1,COc1cc(C(C)C)c(Oc2cnc(N)nc2N)cc1C#CC1CC1,226 to 227 °C
2,CCOc1cc(CBr)ccc1C(=O)O,64 to 66 °C
3,CCCCc1c(C(=O)OCC)cc(O)c2c(OC)cccc12,80 to 82 °C
4,CC#CCOc1cc(-n2nnn(CCC)c2=O)c(Cl)cc1Cl,58 to 60 °C
5,CCS(=O)C1CCC2C3CCC4=CC(=O)C=CC4(C)C3(F)C(O)CC21C (configuration not stated),247 to 250 °C
6,CCCOc1ccccc1-c1nc2nc(S(C)(=O)=O)ncc2c(=O)[nH]1,217 to 219 °C
7,Cc1c(CCC(=O)O)cc(C(C)(C)C)c(O)c1C,191 to 193 °C
8,O=CN1CCC(c2nn(-c3ccc(F)cc3)c3ccccc23)CC1,128 to 130 °C
9,CC(=O)Nc1ccc(N(c2ccccc2)C2(c3ccc(N(C)C)cc3)OC(=O)c3ccccc32)cc1 (configuration not stated),182 to 184 °C
10,CC(COc1ccc(CC2SC(=O)NC2=O)cc1)N1CC(COc2cccc(Cl)c2)OC1=O (configuration not stated),48 to 53 °C
11,CC=CCn1c(CC)c(C)c2cnnc(OCc3ccc(F)cc3)c21,74 to 76 °C
12,CCOC(=O)c1cn2c(n1)CN(C(=O)OCC)c1ccccc1-2,151 to 153 °C
13,O=S1CCN(CC2CN=C(c3cc4cccc(NS(=O)(=O)c5ccccn5)c4[nH]3)S2)CC1 (configuration not stated),270 °C
14,Cc1cccc(P(c2cccs2)c2cccs2)c1-c1c(C)cccc1P(c1cccs1)c1cccs1,177 to 178 °C
15,CC(=O)OC1(C(C)=O)CCC2C3C(OS(C)(=O)=O)C(Cl)C4=CC(=O)OCC4(C)C3CCC21C (configuration not stated),222 to 226 °C
16,C=CCN1CC(c2ccccc2)=C(O)C1=O,178 to 183 °C
17,CCC(NC(=NC#N)Nc1cccnc1)c1ccccc1 (configuration not stated),155 to 156 °C
18,CSc1ccc2c(c1)C(SCCBr)Cc1ccccc1O2 (configuration not stated),64 to 66 °C
19,CNC(=O)N/N=C1/C(=O)N(CCN(C(C)C)C(C)C)c2ccccc21,175 to 177 °C
20,c1ccc2c(c1)cnc1nnnn12,150 °C
21,COc1nc(NC(=S)NS(=O)(=O)c2cccnc2)nc(OC)n1,158 to 160 °C
22,NC(=O)c1c(F)ccc(OCc2ccc3ccccc3n2)c1F,216 to 218 °C
23,Nc1ccc(S(=O)(=O)Oc2ccccc2)cc1[N+](=O)[O-],104 °C
24,CCOC(=O)N1N=C(c2ccc(N)cc2)c2cc(Br)ccc2CC1C (configuration not stated),114 to 117 °C

row,SMILES,melting point
1,COC(=O)C1Cc2cc3c(cc2C(c2ccc([N+](=O)[O-])cc2)=NN1)OCO3 (configuration not stated),161 to 164 °C
2,Cc1oc(-c2ccccc2)nc1COc1ccc(Sc2nc(-c3ccccc3)c(CCC(=O)O)s2)cc1,121 to 122 °C
3,Nc1nc2[nH]c(CCCc3ccc(C(=O)N[C@@H](CCC(=O)O)C(=O)O)s3)cc2c(=O)[nH]1,175 to 176 °C
4,Cn1ncc2[nH]c3ccc(Cc4ccccc4Cl)cc3c(=O)c21,278 °C
5,COc1cc(Nc2nccc(NC(=O)OC(C)(C)C)n2)cc(OC)c1OC,124 °C
6,O=C1c2ccccc2-c2c1c1ccccc1c(=O)n2CCCCCNS(=O)(=O)c1ccccc1,194 to 195 °C
7,CS(=O)(=O)c1ccc(-n2cncc2-c2cnc(Cl)c(Cl)c2)cc1,192 to 198 °C
8,CCCc1nn(C)c(C(N)=O)c1C(=O)c1ccc(N)cc1,140 °C
9,CCC(O)c1ncn2c1CN(C)C(=O)c1ccccc1-2 (configuration not stated),145 to 147 °C
10,Cc1cc2c(cc1C)N(C)C(=O)C(CC(=O)O)C2c1ccccc1Cl (configuration not stated),210 to 215 °C
11,O=c1ncc(Cl)cn1Cc1ccccc1,197 °C
12,COc1ccc(-c2nc3ccc(OC)cc3c(Br)c2Cl)cc1,184 to 185 °C
13,CC(C)Cn1c(CNC(=O)OC(C)(C)C)c(-c2ccc(F)cc2)c2cc(OCc3ccccc3)ccc2c1=O,184 to 185 °C
14,O=C(C[N+](=O)[O-])c1ccc2c(c1)CCN2,172 to 174 °C
15,CC1(C)C=Cc2cc(-c3nnnn3CCN3C(=O)c4ccccc4C3=O)ccc2O1,178 to 182 °C
16,CC(=O)c1ccc(OCCCOc2cccc(NC(=O)c3nnn[nH]3)c2C#N)c(CCC(F)(F)F)c1O,206 to 208 °C
17,Cc1cc(-n2ccc(=O)[nH]c2=O)cc(Cl)c1S(=O)(=O)c1ccc(Cl)cc1,235 to 242 °C
18,CC1(C)C(=O)Oc2ccc3cc(C(=O)O)c(Cn4cncn4)cc3c21,262 to 265 °C
19,CCSc1ccc(C(=O)NCc2ccc3c(c2)C(=O)N(C2CCC(=O)NC2=O)C3=O)nc1 (configuration not stated),198 to 200 °C
20,CC1=CC(=NO)CC(c2cccc(Cl)c2)N1 (configuration not stated),88 °C
21,Cc1ccc(-c2ccc(C)c(C(N)=O)c2N)cc1,250 °C
22,CCOC(=O)Cc1nnc(NS(=O)(=O)c2ccc(NC(C)=O)cc2)s1,156 to 157 °C
23,CC(C)(C)C(=O)Nc1ccc(Br)cc1-c1ccnc(C(F)(F)F)n1,153 to 157 °C
24,CC(C)(C)OC(=O)N1CCC(CI)CC1,58 to 59 °C
